Patent US20250306008A1, “PHARMACEUTICAL COMPOSITION FOR TREATING OR PREVENTING MALIGNANT BREAST CANCER” (KOREA ADVANCED INSTITUTE OF SCIENCE AND TECHNOLOGY, priority 2021, published 2025)

Assays:
BT20 cells = assay: Tamoxifen drug response (Incucyte confluency) after BCL11A and HDAC1/2 inhibition; format: cell-based; details: tamoxifen 10 uM
Description: (§1) Briefly, it is as follows: Cells were plated in 1×10^4 cells (3 repetitions for each condition; triplicate), after 24 hours, the cells were treated with the tamoxifen drug (10 uM) and monitored by taking pictures at 3-hour intervals using Incucyte for 72 hours. After that, the confluency of the cells in the pictures was calculated and the sensitivity of the cells to various drugs was graphed.

MDA-MB231 cells = assay: as above; format: cell-based; details: tamoxifen 10 uM
Description: as §1

T47D cell line = assay: Tamoxifen drug response after BCL11A and HDAC1/2 overexpression; format: cell-based, human
Excerpt: The present inventors confirmed the tamoxifen drug response in human breast cancer cell lines T47D and MCF7 upon overexpression (OE) of BCL11A and HDAC1/2.

breast cancer patients = assay: Patients' drug response to tamoxifen according to BCL11A and HDAC1/2 expression; design: species or system human; details: patient group with low expression of BCL11A and HDAC1/2 compared to the group with high expression

Row | Molecule | sensitivity of treated cells to Tamoxifen (cell confluency) (BT20 cells; BT20, monitored 72 hours) | sensitivity of treated cells to Tamoxifen (cell confluency) (MDA-MB231 cells; MDA-MB231, monitored 72 hours) | sensitivity to tamoxifen of overexpressing cells (T47D cell line; T47D cells overexpressing BCL11A-OE, HDAC1/2-OE, or both) | response of control cells to tamoxifen (T47D cell line; T47D control cells) | sensitivity of patient group to the tamoxifen drug (breast cancer patients) | sensitivity of control cells (shScrambled) to Tamoxifen (BT20 cells; BT20 control cells (shScrambled), 72 hours) | sensitivity of control cells (shScrambled) to Tamoxifen (MDA-MB231 cells; MDA-MB231 control cells (shScrambled), 72 hours)
1 | shBCL11A: shRNA (GCATAGACGATGGCACTGTTA; SEQ ID NO: 1) designed to target the BCL11A gene, used as the BCL11A inhibitor | some sensitivity | some sensitivity |  |  |  |  | 
2 | CC/C(=C(\c1ccccc1)c1ccc(OCCN(C)C)cc1)c1ccccc1 [Tamoxifen, tamoxifen] |  |  | did not show sensitivity | responded | higher sensitivity | did not show sensitivity | did not show sensitivity
